The term pKd denotes −log10 of the Kd, conventionally taken in molar units. Read a low pKd as a large Kd.

The target of the test is SidJ (Legionella pneumophila, UniProt Q5ZTK6). Put plainly: biochemical.

pKd: −log10 of the molar value.

SidJ, sequence (Q5ZTK6 whole entry, looked up): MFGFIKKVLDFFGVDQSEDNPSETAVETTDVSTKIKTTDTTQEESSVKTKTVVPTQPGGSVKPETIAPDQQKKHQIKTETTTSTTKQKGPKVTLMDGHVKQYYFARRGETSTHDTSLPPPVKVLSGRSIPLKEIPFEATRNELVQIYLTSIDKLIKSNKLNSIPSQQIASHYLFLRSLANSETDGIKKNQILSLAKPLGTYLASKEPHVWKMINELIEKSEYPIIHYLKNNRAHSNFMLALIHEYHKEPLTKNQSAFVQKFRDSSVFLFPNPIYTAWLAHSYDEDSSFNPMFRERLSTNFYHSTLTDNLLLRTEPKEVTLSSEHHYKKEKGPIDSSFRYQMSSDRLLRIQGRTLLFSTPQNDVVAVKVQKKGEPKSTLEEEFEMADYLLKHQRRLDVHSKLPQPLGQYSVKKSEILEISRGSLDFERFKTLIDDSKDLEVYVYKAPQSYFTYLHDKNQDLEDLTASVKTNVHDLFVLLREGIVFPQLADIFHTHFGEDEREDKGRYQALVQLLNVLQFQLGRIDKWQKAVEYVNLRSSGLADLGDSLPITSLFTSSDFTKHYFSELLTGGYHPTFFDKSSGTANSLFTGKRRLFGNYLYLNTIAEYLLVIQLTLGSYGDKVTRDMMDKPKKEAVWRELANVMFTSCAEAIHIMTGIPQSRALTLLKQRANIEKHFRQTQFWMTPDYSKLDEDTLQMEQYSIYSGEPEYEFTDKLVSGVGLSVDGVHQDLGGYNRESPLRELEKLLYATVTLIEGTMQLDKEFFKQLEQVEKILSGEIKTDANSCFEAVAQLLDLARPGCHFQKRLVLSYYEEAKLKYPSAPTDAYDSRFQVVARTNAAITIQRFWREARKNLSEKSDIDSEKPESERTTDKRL

Compound `Nc1ncnc2c1ncn2[C@@H]1O[C@H](COP(=O)(O)OP(=O)(O)OP(=O)(O)O)[C@@H](O)[C@H]1O` [ATP] had a pKd of 5.84.

These data come from paper PMC6855250 (Nature, 2019).
